From patent publication US20170239323A1, “ORITAVANCIN FORMULATIONS” (The Medicines Company, priority 2016, published 2017)

Test: pH adjustment of oritavancin/HPCD solution with 1N NaOH: visual observations
Assay type: physicochemical
Settings: for Observations: 20% w/v HPCD reconstitution (3 mL aliquot)
Procedure: Reconstituting Orbactiv 400 mg (Oritavancin) in 20% w/v HPCD, diluting in saline then adjusting pH. The 50 mg/mL solution of oritavancin in 20% w/v HPCD (described in Table 3) was further diluted in 0.9% saline to 6 mg/mL in a small glass vial. The pH was adjusted using 1N NaOH. NaOH was added to the oritavancin solution in […] and vortexed. Visual observations and pH were recorded (Table 5).
Reconstituting Orbactiv 400 mg (Oritavancin) in 50% w/v HPCD aqueous solution, adjusting pH then diluting in saline. 6.269 g of HPCD was dissolved in 12.538 mL of water to make a 50% w/v solution (pH=7.23). Seven (7) mL of the 50% w/v solution was added to a 400 mg vial of Orbactiv for a target oritavancin concentration of 57.14 mg/mL. […] A 2 mL aliquot of 57.14 mg/mL was removed from the vial and placed in a small glass vial. The pH was adjusted to 6.5 using 1N NaOH. NaOH was added to the oritavancin solution in 5 μL increments and vortexed. Visual observations and pH were recorded (Table 6).
(§1) Reconstituting Orbactiv 400 mg (Oritavancin) in 50% w/v aqueous HPCD, adjusting pH then diluting in saline. 6.112 g of HPCD was dissolved in 12.224 mL of water to make a 50% w/v solution (pH=6.74). Seven (7) mL of the 50% w/v HPCD solution was added to a 400 mg vial of Orbactiv for a target oritavancin concentration of 57.14 mg/mL. […] A 3 mL aliquot of 57.14 mg/mL was removed from the vial and placed in a small glass vial. The pH was adjusted to 7 using 1N NaOH. NaOH was added to the oritavancin solution in 5 μL increments and vortexed. Visual observations and pH were recorded (Table 8).
as §1, with “20%” for “50%”, “3.555” for “6.112”, “17.775” for “12.224”, “(pH=6.88).” for “(pH=6.74).”, “recorded.” for “recorded”, “10).” for “8).”

In the case of `CN[C@H](CC(C)C)C(=O)N[C@H]1C(=O)N[C@@H](CC(N)=O)C(=O)N[C@H]2C(=O)N[C@H]3C(=O)N[C@H](C(=O)N[C@H](C(=O)O)c4cc(O)cc(O)c4-c4cc3ccc4O)[C@H](O[C@H]3C[C@](C)(N)[C@@H](O)[C@H](C)O3)c3ccc(c(Cl)c3)Oc3cc2cc(c3O[C@@H]2O[C@H](CO)[C@@H](O)[C@H](O)[C@H]2O[C@H]2C[C@](C)(NCc3ccc(-c4ccc(Cl)cc4)cc3)[C@@H](O)[C@H](C)O2)Oc2ccc(cc2Cl)[C@H]1O` [Oritavancin], the “pH to which solution could be adjusted without any sign of precipitation” value (57 mg/mL in 20% w/v aqueous HPCD, over 24 hours) is reported as 7, the “pH to which solution could be adjusted without any sign of precipitation” value (57 mg/mL in 50% w/v aqueous HPCD, over 24 hours) is reported as 7 and the “pH to which solution could be adjusted without any sign of precipitation” value (57 mg/mL in 50% w/v aqueous HPCD, over an hour) is reported as 6.3. For the same molecule, the Observations (1N NaOH 0 μL, pH 3.95, oritavancin 57.14 mg/mL) was “Clear, colorless solution”, the Observations (1N NaOH 5 μL, pH 4.11, oritavancin 57.04 mg/mL) was “Clear, colorless solution” and the Observations (1N NaOH 10 μL, pH 4.31, oritavancin 56.94 mg/mL) was “Clear, colorless solution”. The Observations (1N NaOH 15 μL, pH 4.68, oritavancin 56.84 mg/mL) was “Clear, colorless solution”, the Observations (1N NaOH 20 μL, pH 4.89, oritavancin 56.74 mg/mL) was “Clear, colorless solution” and the Observations (1N NaOH 25 μL, pH 5.19, oritavancin 56.64 mg/mL) was “Clear, colorless solution”. For the same molecule, the Observations (1N NaOH 30 μL, pH 5.29, oritavancin 56.54 mg/mL) was “Clear, colorless solution”, the Observations (1N NaOH 35 μL, pH 5.45, oritavancin 56.44 mg/mL) was “Clear, colorless solution” and the Observations (1N NaOH 40 μL, pH 5.57, oritavancin 56.34 mg/mL) was “Clear, colorless solution”. The Observations (1N NaOH 45 μL, pH 5.63, oritavancin 56.23 mg/mL) was “Clear, colorless solution”, the Observations (1N NaOH 50 μL, pH 5.69, oritavancin 56.13 mg/mL) was “Clear, colorless solution” and the Observations (1N NaOH 55 μL, pH 5.82, oritavancin 56.03 mg/mL) was “Clear, colorless solution”. The Observations (1N NaOH 60 μL, pH 5.87, oritavancin 55.92 mg/mL) was “Clear, colorless solution”, the Observations (1N NaOH 65 μL, pH 5.95, oritavancin 55.82 mg/mL) was “Clear, colorless solution” and the Observations (1N NaOH 70 μL, pH 6.01, oritavancin 55.71 mg/mL) was “Clear, colorless solution”. The Observations (1N NaOH 75 μL, pH 6.06, oritavancin 56.60 mg/mL) was “Clear, colorless solution”, the Observations (1N NaOH 80 μL, pH 6.10, oritavancin 55.49 mg/mL) was “Clear, colorless solution” and the Observations (1N NaOH 85 μL, pH 6.18, oritavancin 55.38 mg/mL) was “Clear, colorless solution”. The Observations (1N NaOH 90 μL, pH 6.20, oritavancin 55.28 mg/mL) was “Clear, colorless solution”, the Observations (1N NaOH 95 μL, pH 6.24, oritavancin 55.17 mg/mL) was “Clear, colorless solution” and the Observations (1N NaOH 100 μL, pH 6.28, oritavancin 55.06 mg/mL) was “Clear, colorless solution”. For the same molecule, the Observations (1N NaOH 105 μL, pH 6.34, oritavancin 54.95 mg/mL) was “Clear, colorless solution”, the Observations (1N NaOH 110 μL, pH 6.38, oritavancin 54.85 mg/mL) was “Clear, colorless solution” and the Observations (1N NaOH 115 μL, pH 6.44, oritavancin 54.74 mg/mL) was “Clear, colorless solution”. For the same molecule, the Observations (1N NaOH 120 μL, pH 6.49, oritavancin 54.64 mg/mL) was “Clear, colorless solution”, the Observations (1N NaOH 125 μL, pH 6.52, oritavancin 54.52 mg/mL) was “Clear, colorless solution” and the Observations (1N NaOH 130 μL, pH 6.54, oritavancin 54.41 mg/mL) was “Clear, colorless solution”. For the same molecule, the Observations (1N NaOH 135 μL, pH 6.57, oritavancin 54.30 mg/mL) was “Clear, colorless solution”, the Observations (1N NaOH 140 μL, pH 6.62, oritavancin 54.19 mg/mL) was “Clear, colorless solution” and the Observations (1N NaOH 145 μL, pH 6.65, oritavancin 54.09 mg/mL) was “Clear, colorless solution”. For the same molecule, the Observations (1N NaOH 150 μL, pH 6.69, oritavancin 53.97 mg/mL) was “Clear, colorless solution”, the Observations (1N NaOH 155 μL, pH 6.72, oritavancin 53.86 mg/mL) was “Clear, colorless solution” and the Observations (1N NaOH 160 μL, pH 6.76, oritavancin 53.75 mg/mL) was “Clear, colorless solution”. For the same molecule, the Observations (1N NaOH 165 μL, pH 6.80, oritavancin 53.63 mg/mL) was “Clear, colorless solution”, the Observations (1N NaOH 170 μL, pH 6.82, oritavancin 53.51 mg/mL) was “Clear, colorless solution” and the Observations (1N NaOH 175 μL, pH 6.86, oritavancin 53.40 mg/mL) was “Clear, colorless solution”. For the same molecule, the Observations (1N NaOH 180 μL, pH 6.90, oritavancin 53.28 mg/mL) was “Clear, colorless solution”, the Observations (1N NaOH 185 μL, pH 6.93, oritavancin 53.17 mg/mL) was “Clear, colorless solution” and the Observations (1N NaOH 190 μL, pH 6.98, oritavancin 53.05 mg/mL) was “Clear, colorless solution”. The Observations (1N NaOH 195 μL, pH 7.03, oritavancin 52.94 mg/mL) was “Clear, colorless solution”.
